Experiments:
[1] = test system: Rab10-pThr73; test: Rab10 dephosphorylation in WT MEFs by Western blotting; assay type: cell-based, mouse; details: Mus musculus; 4 h, WT MEFs; read-out: EC50 WT-pRab10
Procedure: (§1) These PROTACs were then biologically evaluated in mouse embryonic fibroblasts (MEFs) by Western blotting. Briefly, MEFs were treated with compounds at 33 nM and 1 μM for 4 h (Figure 2) and 24 h (Figure S2) separately, and the intracellular level of LRRK2, phosphorylated LRRK2 at Ser935, and phosphorylated Rab10 (pRab10) at Thr73 was determined. Rab10[5],[49] is one of the bona fide substrates of LRRK2, whose phosphorylation status is directly affected by the LRRK2 kinase activity and protein level. Phosphorylation of LRRK2 at Ser935 is a well-studied biomarker site used to assess the efficacy of type 1 LRRK2 inhibitors.[30]
(§2) Primary MEFs were generated as described in a previous study.[80] Briefly, the uterine horn was collected from adult female mice at day E12.5 and transferred to a 10 cm tissue culture dish containing cold PBS. Two forceps were used to tear the yolk sacs to isolate each embryo. Forceps were cleaned thoroughly with 70% ethanol between each embryo isolation. The embryos were culled, and a tissue piece was collected in a polymerase chain reaction (PCR) tube for genotyping. The red tissue of the embryo was removed, and the remainder was minced with a scalpel blade and incubated with a 7.5 mL trypsin–ethylenediaminetetraacetic acid (EDTA) solution for 10 min in a 37 °C, 5% CO2 tissue culture incubator. The dish was removed from the incubator and checked under a light microscope for single cells. Complete media (7.5 mL) was added to the trypsinized cells, and the cell suspension was transferred to a 15 mL Falcon tube and centrifuged at 1200 rpm for 5 min at room temperature. The trypsin was aspirated, the cell pellet was resuspended in a 5 mL fresh complete media, and the cell suspension was plated in a 60 mm tissue culture dish and incubated in a 37 °C, 5% CO2 tissue culture incubator. The MEFs at this stage were considered as passage 0 and were passaged and expanded for experimental use once the genotype was confirmed by allelic sequencing and immunoblotting. MEFs were cultured in Dulbecco’s modified Eagle’s medium (DMEM) containing 10% (v/v) fetal bovine serum (FBS), 2 mM L-glutamine, 100 U/mL penicillin, and 100 μg/mL streptomycin supplemented with 1× nonessential amino acids and 1 mM sodium pyruvate.
(§3) Culturing and passaging of adherent cell lines were carried out using an aseptic technique in CL1 or CL2 (for PBMC isolation) biological safety cabinets. All cells were incubated in a 37 °C incubator with 5% CO2. Cell lines were regularly tested for mycoplasma contamination. For Western blot assay, the cells were seeded in six-well plates. For immunoprecipitation of LRRK2, SH-SY5Y cells (cultured in DMEM-F12, supplemented with 15% (v/v) FBS, 100 U/mL penicillin and 100 μg/mL streptomycin, 1× nonessential amino acids, and 1 mM sodium pyruvate) were seeded in a 10 cm dish. All cells were treated with the indicated compounds such that the final concentration of DMSO was 0.1%. Following the treatment of cells with compounds at indicated concentrations and time periods, the media was removed and the cells were washed with PBS and lysed in a 100 μL ice-cold complete lysis buffer containing 50 mM tris–HCl pH 7.4, 1 mM EGTA, 10 mM 2-glycerophosphate, 50 mM sodium fluoride, 5 mM sodium pyrophosphate, 270 mM sucrose, supplemented with 1 μg/mL microcystin-LR, 1 mM sodium orthovanadate, complete EDTA-free protease inhibitor cocktail (Roche), and 1% (v/v) Triton X-100. The cells were immediately placed on ice and were scraped and collected into 1.5 mL Eppendorf tubes. Cell lysates were incubated on ice for 10 min prior to centrifugation at 15 000g at 4 °C for 15 min.

[2] = test system: Rab10-pThr73; test: Rab10 dephosphorylation in G2019S LRRK2 MEFs by Western blotting; assay type: cell-based, mouse
Procedure: as §1, §2, §3

[3] = biological target: T1, G2019S LRRK2 (Mus musculus, UniProt Q5S006, G2019S); test: LRRK2 degradation in G2019S LRRK2 MEFs by Western blotting; assay type: cell-based
T1 construct: endogenous in cells; host or cells: G2019S LRRK2 MEFs
Procedure: as §1, §2, §3

[4] = biological target: T2, WT LRRK2 (Mus musculus, UniProt Q5S006); test: LRRK2 degradation in WT MEFs by Western blotting; assay type: cell-based; details: 4 h
T2 construct: endogenous in cells; host or cells: wild-type primary MEFs
Procedure: as §1, §2, §3

[5] = test system: LRRK2; test: Western blot screening of PROTACs in WT and G2019S LRRK2 MEFs; assay type: cell-based, mouse
Procedure: as §1, §2
Culturing and passaging of adherent cell lines were carried out using an aseptic technique in CL1 or CL2 (for PBMC isolation) biological safety cabinets. All cells were incubated in a 37 °C incubator with 5% CO2. Cell lines were regularly tested for mycoplasma contamination. For Western blot assay, the cells were seeded in six-well plates.

T1 sequence (Q5S006 whole entry G2019S): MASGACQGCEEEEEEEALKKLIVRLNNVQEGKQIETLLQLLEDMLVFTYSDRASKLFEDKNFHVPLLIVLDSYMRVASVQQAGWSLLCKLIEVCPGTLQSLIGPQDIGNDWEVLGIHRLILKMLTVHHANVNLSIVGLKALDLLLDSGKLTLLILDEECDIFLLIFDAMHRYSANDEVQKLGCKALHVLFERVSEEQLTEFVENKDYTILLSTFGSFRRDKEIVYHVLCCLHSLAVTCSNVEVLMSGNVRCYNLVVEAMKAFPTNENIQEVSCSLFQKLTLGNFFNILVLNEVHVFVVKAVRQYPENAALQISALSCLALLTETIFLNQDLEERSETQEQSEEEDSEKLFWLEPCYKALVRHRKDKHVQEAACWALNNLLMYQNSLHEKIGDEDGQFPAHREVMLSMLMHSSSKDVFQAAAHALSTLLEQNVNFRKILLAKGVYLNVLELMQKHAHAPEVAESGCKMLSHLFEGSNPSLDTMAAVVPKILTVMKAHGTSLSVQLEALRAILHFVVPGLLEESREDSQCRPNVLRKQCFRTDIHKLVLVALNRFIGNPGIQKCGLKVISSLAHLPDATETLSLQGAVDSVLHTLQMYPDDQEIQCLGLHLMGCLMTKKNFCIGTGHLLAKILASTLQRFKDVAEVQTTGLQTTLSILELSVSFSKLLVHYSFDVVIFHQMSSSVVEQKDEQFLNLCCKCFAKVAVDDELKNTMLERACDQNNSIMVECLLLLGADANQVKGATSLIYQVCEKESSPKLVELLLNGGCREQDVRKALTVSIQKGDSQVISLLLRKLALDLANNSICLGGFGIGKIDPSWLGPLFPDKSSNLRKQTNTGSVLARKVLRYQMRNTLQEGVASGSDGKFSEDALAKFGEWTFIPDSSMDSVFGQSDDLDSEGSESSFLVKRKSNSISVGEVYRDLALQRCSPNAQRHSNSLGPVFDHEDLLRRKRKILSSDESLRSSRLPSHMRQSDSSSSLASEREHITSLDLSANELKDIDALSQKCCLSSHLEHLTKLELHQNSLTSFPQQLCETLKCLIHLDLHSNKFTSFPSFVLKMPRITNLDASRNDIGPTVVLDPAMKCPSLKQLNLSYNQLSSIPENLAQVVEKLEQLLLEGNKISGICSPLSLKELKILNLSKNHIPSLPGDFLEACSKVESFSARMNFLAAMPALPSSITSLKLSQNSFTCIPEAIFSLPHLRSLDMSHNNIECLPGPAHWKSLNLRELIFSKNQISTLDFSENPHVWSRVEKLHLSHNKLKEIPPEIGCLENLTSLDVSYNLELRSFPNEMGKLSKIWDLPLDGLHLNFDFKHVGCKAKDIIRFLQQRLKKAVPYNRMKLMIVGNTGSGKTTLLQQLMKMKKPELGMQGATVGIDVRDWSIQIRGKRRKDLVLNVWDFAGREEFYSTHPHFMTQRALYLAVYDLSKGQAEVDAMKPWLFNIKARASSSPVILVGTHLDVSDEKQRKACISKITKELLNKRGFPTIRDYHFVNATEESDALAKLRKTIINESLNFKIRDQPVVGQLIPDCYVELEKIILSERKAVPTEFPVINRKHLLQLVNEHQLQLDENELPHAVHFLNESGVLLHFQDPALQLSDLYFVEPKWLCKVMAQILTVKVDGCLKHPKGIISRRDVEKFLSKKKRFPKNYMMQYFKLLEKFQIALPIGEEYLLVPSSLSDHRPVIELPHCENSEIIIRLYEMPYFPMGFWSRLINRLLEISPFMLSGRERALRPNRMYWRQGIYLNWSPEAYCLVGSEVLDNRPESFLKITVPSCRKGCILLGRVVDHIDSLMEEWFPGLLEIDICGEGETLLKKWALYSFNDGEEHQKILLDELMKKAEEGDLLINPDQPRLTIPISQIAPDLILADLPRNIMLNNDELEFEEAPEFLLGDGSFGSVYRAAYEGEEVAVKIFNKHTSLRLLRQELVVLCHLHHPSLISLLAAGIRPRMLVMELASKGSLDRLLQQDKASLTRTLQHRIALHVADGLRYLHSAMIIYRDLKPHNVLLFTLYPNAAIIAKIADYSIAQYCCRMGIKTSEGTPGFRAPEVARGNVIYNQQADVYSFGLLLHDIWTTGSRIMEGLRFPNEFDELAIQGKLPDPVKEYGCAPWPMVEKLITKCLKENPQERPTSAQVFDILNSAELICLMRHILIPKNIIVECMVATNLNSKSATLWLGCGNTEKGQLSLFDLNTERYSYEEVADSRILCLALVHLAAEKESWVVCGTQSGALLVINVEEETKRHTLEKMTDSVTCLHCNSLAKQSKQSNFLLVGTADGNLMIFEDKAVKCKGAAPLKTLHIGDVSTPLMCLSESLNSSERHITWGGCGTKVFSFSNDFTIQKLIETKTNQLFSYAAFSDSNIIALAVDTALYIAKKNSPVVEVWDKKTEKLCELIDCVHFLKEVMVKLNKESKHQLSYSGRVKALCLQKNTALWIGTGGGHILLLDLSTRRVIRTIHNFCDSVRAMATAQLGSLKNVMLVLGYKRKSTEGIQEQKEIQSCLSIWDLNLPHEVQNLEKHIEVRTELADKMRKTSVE
T2 sequence (Q5S006 whole entry): as the sequence (Q5S006 whole entry G2019S) above, with S2019G counted along it

`CNc1nc(Nc2ccc(C(=O)N3CCOCC3)cc2OC)ncc1Cl` [HG-10-102-01, reference compound] was tested, and the EC50 [1] was 214 nM, the EC50 ([2]; Mus musculus, 4 h, G2019S LRRK2 MEFs, read-out: EC50 G2019S pRab10) was 110 nM and the “degradation of G2019S LRRK2 (in words)” value ([3]; 4 h) was “did not degrade LRRK2”. For the same molecule, the “degradation of WT LRRK2 (in words)” value [4] was “did not degrade LRRK2”.

With `CNc1nc(Nc2ccc(C(=O)N3CCN(CCCOc4cc(-c5scnc5C)ccc4CNC(=O)[C@@H]4C[C@@H](O)CN4C(=O)[C@@H](NC(=O)C4(F)CC4)C(C)(C)C)CC3)cc2OC)ncc1Cl` [SD13] the “G2019S LRRK2 degraded” value ([3]; 33 nM/4 h) was 60% and the “G2019S LRRK2 degraded” value ([3]; 33 nM/24 h) was 68%.

With `CNc1nc(Nc2ccc(C(=O)N3CCN(Cc4ccc(CSC(C)(C)C(NC(=O)C5(F)CC5)C(=O)N5CC(O)CC5C(=O)NCc5ccc(-c6scnc6C)cc5)cc4)CC3)cc2OC)ncc1Cl` (stereo not drawn) [SD100] the “degradation of LRRK2” value ([5]; 0.033 µM) was < 40%, the “degradation of LRRK2 (in words)” value ([5]; 33 nM/4 h, WT and G2019S LRRK2 MEFs) was “little to no degradation” and the pRab10 dephosphorylated ([2]; 1 µM) was 75–90%.

From publication PMC9501899 (Journal of the American Chemical Society, 2022)
